Source: patent publication US5010058A, “3,5,6-substituted derivatives of 1,2-O-isopropylidene-α,D-glucofuranose and intermediates for preparing these derivatives” (501 Greenwich Pharmaceuticals Incorporated, priority 1989, dated 1991)

Assays:
[1] = tested on: BUD-8 skin cell fibroblasts; test: Proliferation of BUD-8 skin cell fibroblasts (3H-thymidine uptake); format: cell-based, human; conditions: for 3H-Thymidine uptake by BUD-8 skin cells: triplicates ± SD
Experimental: The human skin cell fibroblast line, BUD-8, was originally derived from the normal skin of a person and can now be obtained from the American Type Culture Collection.
The number of BUD-8 cells was expanded for use by culture in 25 cm^2 flasks at 37° C. in an atmosphere of 5% CO2 in air. At approximately 4-5 five day intervals, or when confluence was reached, the cells were passaged. This was accomplished by detaching the cells with a Teflon scraper, washing and reseeding the cells at a lower density into fresh tissue culture flasks.
The effect of these compound on the proliferative capacity of human BUD-8 skin fibroblasts was measured with the use of a ^3 H-thymidine incorporation assay using culture conditions which were similar to those used for the Con-A blastogenesis assay, described previously. Cultured skin cells were detached from the surface of tissue culture flasks mechanically with a Teflon scraper. The cells were washed, resuspended in incubation medium and the viabilities were determined. These cells were then plated in triplicate at a density of 2×10^3 cells/0.1 ml/microtiter well for the proliferation assays. […] Eighteen hours later, each of the BUD-8 cultures was examined morphologically for evidence of compound-induced toxicity such as cell rounding or granularity. The thymidine-pulsed cells were then precipitated and the amount of ^3 H-thymidine incorporation was counted in a liquid scintillation counter. […]
^a Experimental compounds were first suspended in DMSO or ethanol,
^b The effect of experimental compounds on the proliferation of BUD8

[2] = in vivo; cited from earlier work
[3] = tested on: normal spleen cells / splenic T-lymphocytes (Con-A stimulated); conditions: THERAFECTIN comparison; cited from earlier work

Row | SMILES | anti-proliferative effect on skin cells [1] | inhibition at 1 µg/mL ([1]; Homo sapiens, Fibroblast, compound 1 ug/ml, percent change from no compound, read-out: 3H-Thymidine uptake by BUD-8 skin cells, % effect) [%] | inhibition at 10 µg/mL ([1]; Homo sapiens, Fibroblast, compound 10 ug/ml, percent change from no compound, read-out: 3H-Thymidine uptake by BUD-8 skin cells, % effect) [%] | inhibition at 25 µg/mL ([1]; Homo sapiens, Fibroblast, compound 25 ug/ml, percent change from no compound, read-out: 3H-Thymidine uptake by BUD-8 skin cells, % effect) [%] | inhibition at 100 µg/mL ([1]; Homo sapiens, Fibroblast, compound 100 ug/ml, percent change from no compound, read-out: 3H-Thymidine uptake by BUD-8 skin cells, % effect) [%] | inhibition at 300 µg/mL ([1]; Homo sapiens, Fibroblast, compound 300 ug/ml, percent change from no compound, read-out: 3H-Thymidine uptake by BUD-8 skin cells, % effect) [%] | inhibition at 750 µg/mL ([1]; Homo sapiens, Fibroblast, compound 750 ug/ml, percent change from no compound, read-out: 3H-Thymidine uptake by BUD-8 skin cells, % effect) [%] | 3H-Thymidine uptake by BUD-8 skin cells ([1]; compound 1 ug/ml) | 3H-Thymidine uptake by BUD-8 skin cells ([1]; compound 10 ug/ml) | 3H-Thymidine uptake by BUD-8 skin cells ([1]; compound 25 ug/ml) | 3H-Thymidine uptake by BUD-8 skin cells ([1]; compound 100 ug/ml) | 3H-Thymidine uptake by BUD-8 skin cells ([1]; compound 300 ug/ml) | 3H-Thymidine uptake by BUD-8 skin cells ([1]; compound 750 ug/ml) | toxicity [2] | utility in rheumatoid arthritis [2] | usual concentration for significant inhibition [3]
1 | CCCCCCCOC1C(C(C)O)OC2OC(C)(C)OC21 [Ex. 3, 1,2-O-Isopropylidene-3-O-(n-heptyl)-6-deoxy-α,D-glucofuranose] | anti-proliferative effect that was statistically significant | 58 | 49 | 19 | 30 | 66 | 43 | 2,589 ± 202 cpm | 3,139 ± 232 cpm | 4,978 ± 632 cpm | 4,288 ± 723 cpm | 2,067 ± 302 cpm | 3,496 ± 1,084 cpm |  |  | 
2 | CN(C)CCCO[C@@H]1[C@H]2OC(C)(C)O[C@H]2O[C@@H]1[C@H](O)CO [THERAFECTIN, 1,2-O-Isopropylidene-3-O-3('N,N'-dimethylamino-n-propyl)-α,D-glucofuranose] |  |  |  |  |  |  |  |  |  |  |  |  |  | little toxicity | demonstrated utility in managing the signs and symptoms of rheumatoid arthritis | 1,000 ug/ml
